Experimental data published in patent publication US5407961A, “α-substituted benzenemethanamine derivatives and pharmaceutical use” (Janssen Pharmaceutica N.V., priority 1991, dated 1995).
≈ marks a conversion by molar mass, not a printed value. Like-named read-outs stand apart in the source and are kept apart here.

Experiments:
HIV-1 = assay: in-vitro anti-HIV assay: inhibition of the HIV-induced cytopathic effect in HIV-infected MT-4 cells (MTT); assay type: cell-based, Human Immunodeficiency Virus; conditions: for SI (selectivity index): ratio of CD50 to ED50
Description: (§1) A rapid, sensitive and automated assay procedure was used for the in-vitro evaluation of anti-HIV agents. An […] T4-cell line, MT-4, which was previously shown (Koyanagi et al., Int. J. Cancer, 36, 445-451, 1985) to be highly susceptible to and permissive for HIV infection, served as the target cell line. Inhibition of the HIV-induced cytopathic effect was used as the end point. The viability of both HIV- and mock-infected cells was assessed spectrophotometrically via the in-situ reduction of 3-(4,5-dimethylthiazol-2-yl)-2,5-diphenyltetrazolium bromide (MTT). The 50% cytotoxic dose (CD50 in μg/ml) was defined as the concentration of compound that reduced the absorbance of the mock-infectedcontrol sample by 50%. The percent protection achieved by the compound in HIV-infected cells was calculated by the following formula: [formula] whereby (ODT)HIV is the optical density measured with a given concentration of the test compound in HIV-infected cells; (ODC)HIV is the optical density measured for the control untreated HIV-infected cells; (ODC)MOCK is the optical density measured for the control untreated mock-infected cells; all optical density values were determined at 540 nm. The dose achieving 50% protection according to the above formula was defined as the 50% effective dose (ED50 in μg/ml). The ratio of CD50 to ED50 was defined as the selectivity index (SI).

in vitro = assay type: cell-based; conditions: human, mt-4 cells
Description: as §1

[1] = Human immunodeficiency virus 1, MT4, dose achieving 50% protection in HIV-infected MT-4 cells, MTT, 540 nm, read-out: ED50 (50% effective dose)

Row | Structure (SMILES) | EC50 (HIV-1; Human immunodeficiency virus 1, MT4, read-out: ED50 (50% effective dose)) | SI (selectivity index) (HIV-1) | CC50 (in vitro) | EC50 (HIV-1; [1])
1 | NC(=O)C(Nc1cccc2ccc[n+]([O-])c12)c1c(Cl)cccc1Cl (stereo not drawn) [Compound 7] | 0.047 µg/mL (≈ 0.13 µM) | 3255 | 53 µg/mL (≈ 146 µM) | –
2 | CC(=O)c1ccccc1NC(c1c(Cl)cccc1Cl)C1CC1 (racemic) [Compound 14, (±)-1-[2-[[cyclopropyl-(2,6-dichlorophenyl)methyl]amino]phenyl]ethanone] | – | 27 | 4.1 µg/mL (≈ 12.3 µM) | 0.15 µg/mL (≈ 0.449 µM)
3 | CC(Nc1ccccc1[N+](=O)[O-])c1c(Cl)cccc1Cl (stereo not drawn) [Compound 13, 2,6-dichloro-α-methyl-N-(2-nitrophenyl)benzenemethanamine] | – | 6 | 0.13 µg/mL (≈ 0.418 µM) | 0.021 µg/mL (≈ 0.0675 µM)
4 | CC(=O)c1ccccc1NC(C)c1c(Cl)cccc1Cl (racemic) [Compound 10, (±)-1-[2-[[1-(2,6-dichlorophenyl)ethyl]amino]phenyl]ethanone] | – | 227 | 5 µg/mL (≈ 16.2 µM) | 0.022 µg/mL (≈ 0.0714 µM)
5 | Cc1cc2c(c(NC(C(N)=O)c3c(Cl)cccc3Cl)c1)C(=O)CC2 (racemic) [Compound 1, (±)-2,6-dichloro-α-[(2,3-dihydro-6-methyl-3-oxo-1H-inden-4-yl)amino]benzene-acetamide] | – | 54560 | 207 µg/mL (≈ 570 µM) | 0.0038 µg/mL (≈ 0.0105 µM)
6 | NC(=O)C(Nc1cccc2c1C(=O)CO2)c1c(Cl)cccc1Cl (racemic) [Compound 9, (±)-2,6-dichloro-α-[(2,3-dihydro-3-oxo-4-benzofuranyl)amino]benzeneacetamide] | – | 1405 | 169 µg/mL (≈ 480 µM) | 0.12 µg/mL (≈ 0.342 µM)
7 | O=[N+]([O-])c1ccccc1NC(CO)c1c(Cl)cccc1Cl (racemic) [Compound 12, (±)-2,6-dichloro-β-(2-nitrophenyl)amino]benzeneethanol] | – | 25 | 4.3 µg/mL (≈ 13.1 µM) | 0.18 µg/mL (≈ 0.55 µM)
8 | CCC(Nc1ccccc1C(C)=O)c1c(Cl)cccc1Cl (stereo not drawn) [Compound 11, 1-[2-[[1-(2,6-dichlorophenyl)propyl]amino]phenyl]ethanone] | – | 13 | 6.9 µg/mL (≈ 21.4 µM) | 0.52 µg/mL (≈ 1.61 µM)
9 | NC(=O)C(Nc1cc(Cl)cc2c1OCC2)c1c(Cl)cccc1Cl (stereo not drawn) [Compound 6] | – | 11 | 0.87 µg/mL (≈ 2.34 µM) | 0.079 µg/mL (≈ 0.213 µM)
10 | CC(=O)c1cc2c(cc1NC(C(N)=O)c1c(Cl)cccc1Cl)CCC2 (stereo not drawn) [Compound 5] | – | 50 | 10 µg/mL (≈ 26.5 µM) | 0.2 µg/mL (≈ 0.53 µM)
